Source: article PMC6881066, “Non-sedating benzodiazepines cause paralysis and tissue damage in the parasitic blood fluke Schistosoma mansoni” (PLoS Neglected Tropical Diseases, 2019)
Entries after “also recorded” stand apart in the source; their conditions may differ. Like-named read-outs stand apart in the source and are kept apart here.

Columns and labels:
adult male S. mansoni [1] = assay: Adult schistosome mobility assay (inhibition of movement); format: cell-based, Schistosoma mansoni; details: for IC50: Schistosoma mansoni, adult male worms cultured in compound overnight, movement relative to DMSO control; for Potency at evoking coiled, contractile paralysis / activity against parasites (in words): in vitro, concentration-response, Fig 2B & 2C
[2] = molecular target: mammalian GABAARs (central benzodiazepine binding site); assay: [3H]flunitrazepam displacement binding assay, rat cerebral cortex membranes; details: rat brain membrane preparations, 0.4 nM radioligand, 60 min at 4°C
Protocol: Binding assays for benzodiazepines against mammalian GABAARs were performed measuring displacement of [3H] flunitrazepam (0.4 nM) from crude brain membrane preparations. Rat cerebral cortex membrane homogenate (80 μg protein) was incubated with 0.4 nM [3H]-flunitrazepam in 50 mM Tris-HCl (pH 7.7), plus test compounds (screened at concentrations ranging from 0.1 nM to 10 μM), and non-specific binding was assessed by incubation with diazepam (3 μM). Following incubation for 60 min at 4°C, samples were vacuum filtered through glass fiber filters (GF/B, Packard) presoaked with 0.3% PEI and rinsed with ice-cold 50 mM Tris-HCl (Unifilter, Packard). Filters were dried and counted for radioactivity in a scintillation counter (Topcount, Packard). Ki values of test compounds were calculated by the Cheng-Prusoff equation.

adult male S. mansoni [3] = assay: In vitro screen / re-screen for coiled, contractile (curl) phenotype; format: cell-based, Schistosoma mansoni; details: for Worms showing curl phenotype: overnight
[4] = cited from earlier work
schistosomes = tested on: schistosomes; design: method as in PMID 380021; details: human clinical trials; cited from earlier work
[5] = human clinical trials; cited from earlier work
S. japonicum = details: no reference given; cited from earlier work
SmGluCl = tested on: SmGluCl; design: method as in PMID 24009509; details: cited from earlier work
S. mansoni = assay: Recovery of worm movement following drug washout; format: cell-based, Schistosoma mansoni; details: 14 hours treatment, recovery 3 hours, 1 day after washout
Protocol: Female Swiss Webster mice infected with S. mansoni cercariae (NMRI strain) were sacrificed 49 days post infection by CO2 euthanasia. Adult schistosomes were recovered by dissection of the mesenteric vasculature. Harvested schistosomes were washed in DMEM (ThermoFisher cat. # 11995123) supplemented with HEPES (25mM), 5% v/v heat inactivated FCS (Sigma Aldrich cat. # 12133C) and Penicillin-Streptomycin (100 units/mL). Worms were cultured in 6 well dishes (4–5 male worms in 3mL media per well) in the presence of various test compounds or DMSO vehicle control overnight (37°C / 5% CO2). Worms were imaged the next day to record movement phenotypes using a Zeiss Discovery v20 stereomicroscope and a QiCAM 12-bit cooled color CCD camera controlled by Metamorph imaging software (version 7.8.1.0). 1 minute recordings were acquired at 4 frames per second and saved as a .TIFF stack, which was imported into ImageJ for analysis. An outline of the workflow used to quantify movement from these video recordings is shown in S1 Fig. Maximum intensity projections were generated for the entire stack of images (241 frames for a 1-minute recording) and integrated pixel values were measured for the resulting composite image, allowing normalization of movement relative to DMSO control treated worms. Inhibition of movement IC50 values were calculated using GraphPad Prism v8.1.1 and are expressed ± 95% confidence intervals. Data represents mean ± standard error for ≥3 independent experiments. Significance (*) was determined by unpaired t-test at a threshold of 0.05.
(§1) Fig 4 Xhe-II-048 damages the schistosome tegument. (A) Transmission electron microscopy images of transverse sections of S. mansoni exposed to either DMSO control, MCLZ (5 μM) or various imidazobenzodiazepines (10 μM, 14 hours). Dorsal tegument is oriented to the top. Scale = 2 μm. Arrowed = vacuoles beneath the tegument apical membrane. (B) Movement of worms treated with DMSO, MCLZ, or TMS-acetylene imidazobenzodiazepine compounds (10 μM, 14 hours), and recovery at various timepoints (3 hours, 1 day) following drug washout.

S. mansoni tegument = assay: Transmission electron microscopy of drug-treated worms (tegument damage); format: cell-based, Schistosoma mansoni
Protocol: Adult worms were harvested and recovered as above. Fixation was carried out overnight at 4°C in 2.5% glutaraldehyde/2% paraformaldehyde in 0.1 M sodium cacodylate (pH 7.3). Worms were washed 3 × 10 minutes in 0.1 M sodium cacodylate and post-fixed for 2 hours on ice in reduced 1% osmium tetraoxide. Worms were then washed 2 × 10 minutes in distilled water and stained overnight at 4°C in alcoholic Uranyl Acetate. Worms were rinsed in distilled water, dehydrated in 50%, 75% and 95% MeOH, followed by successive 10 minute rinses in 100% MeOH and acetonitrile. Worms were incubated in a 1:1 mix of acetonitrile and epoxy resin for 1 hour prior to 2 × 1 hour incubations in epoxy resin. Worms were then cut transversely and embedded overnight in epoxy resin (60°C). Ultra-thin sections (70 nm) were cut onto bare 200-mesh copper grids and stained in aqueous lead citrate for 1 minute. Sections were imaged on a Hitachi H-600 electron microscope fitted with a Hamamatsu C4742-95 digital camera) operating at an accelerating voltage of 75 kV.
Given the parasite-selectivity of imidazobenzodiazepines (Fig 3, blue) relative to MCLZ-like compounds (Fig 3, red), we investigated the effects of XliHeII-048, Xhe-II-048 and SH-I-055 on schistosome tissues in more detail. Specifically, we were interested in drug-evoked damage to the parasite tegument, which is a feature of many anti-schistosomal compounds [38]. Worms treated with DMSO vehicle control, MCLZ (5 μM) or various imidazobenzodiazepines (10 μM, based on effective concentrations determined in Fig 2) overnight were fixed and processed for imaging by transmission electron microcopy (TEM).
as §1

schistosomiasis = tested on: schistosomiasis; design: method as in PMID 21695161, PMID 28619227; details: PZQ treatment; cited from earlier work
[6] = inactive compounds tested at concentrations as high as 50 μM

O=C1CN=C(c2ccccc2Cl)c2cc([N+](=O)[O-])ccc2N1 [CLZ, clonazepam, reference compound]
Decrease in potency relative to MCLZ (loss of C3 methyl group) (adult male S. mansoni [1]; Fig 3): > 3 log
IC50 (adult male S. mansoni [1]; [6]): 1900 nM
Ki [2]: 0.82 nM

C[C@H]1N=C(c2ccccc2F)c2cc(C#C[Si](C)(C)C)ccc2NC1=O [GL-I-61]
Worms showing curl phenotype (adult male S. mansoni [3]; 10 micromolar): 3/8 curling at 10 micromolar

O=C1CN=C(c2ccc(Cl)cc2)c2cc(Cl)ccc2N1 [GL-I-74]
Worms showing curl phenotype (adult male S. mansoni [3]; 10 micromolar): 1/8 curl at 10 micromolar

CCOC(=O)c1ncn2c1[C@H](C)N=C(c1ccccc1F)c1cc(C3CC3)ccc1-2 [GL-I-78]
Worms showing curl phenotype (adult male S. mansoni [3]; 10 micromolar): Inactive (0/8 curl) at 10 micromolar
Potency at evoking coiled, contractile paralysis / activity against parasites (in words) (adult male S. mansoni [1]): dramatically decreased affinity

C[C@H]1N=C(c2ccccc2F)c2cc(Br)ccc2-n2cnc(-c3cnco3)c21 [GL-III-36]
Worms showing curl phenotype (adult male S. mansoni [3]; 10 micromolar): inactive (0/8 curling) at 10 micromolar

C[C@H]1N=C(c2ccccc2F)c2cc(C#C[Si](C)(C)C)ccc2-n2cnc(-c3cnco3)c21 [GL-III-72]
Worms showing curl phenotype (adult male S. mansoni [3]; 10 micromolar): 5/8 curl at 10 micromolar

Brc1ccc2c(c1)C(c1ccccc1)=NCc1c(-c3cnco3)ncn1-2 [KRM-II-73]
Worms showing curl phenotype (adult male S. mansoni [3]; 10 micromolar): 2/8 curl at 10 micromolar

Cc1ncoc1-c1ncn2c1CN=C(c1ccccc1)c1cc(Br)ccc1-2 [KRM-III-66]
Worms showing curl phenotype (adult male S. mansoni [3]; 10 micromolar): 6/8 curl at 10 micromolar

C#Cc1ccc2c(c1)C(c1ccccn1)=NCc1c(-c3ocnc3C)ncn1-2 [KRM-III-79]
Worms showing curl phenotype (adult male S. mansoni [3]; 10 micromolar): 5/8 curl at 10 micromolar

C[C@@H]1N=C(c2ccccc2Cl)c2cc([N+](=O)[O-])ccc2NC1=O [MCLZ, meclonazepam]
Bioavailability ([4]; MCLZ): orally bioavailable
Half-life ([4]; MCLZ): up to 80 hours
Effective anti-parasitic dose (schistosomes): 0.2 to 0.3 mg/kg
Dose at which sedation was reported [5]: above 0.3 mg/kg
Activity against S. japonicum (S. japonicum): inactive
Activity against SmGluCl (SmGluCl): inactive
IC50 (adult male S. mansoni [1]): 160 nM
Recovery of movement following drug washout (S. mansoni; MCLZ): do not recover movement
Tegument ultrastructure (TEM) (S. mansoni tegument; 5 μM, overnight): pervasive vacuolization of the tegument
Ki [2]: 2.4 nM

C[C@@H]1N=C(c2ccccc2)c2cc([N+](=O)[O-])ccc2NC1=O [MYM-I-88]
IC50 (adult male S. mansoni [1]; [6]): 26000 nM
Ki [2]: 76.4 nM

C[C@@H]1N=C(c2ccccc2F)c2cc([N+](=O)[O-])ccc2NC1=O [MYM-I-91A]
IC50 (adult male S. mansoni [1]; [6]): 7200 nM
Ki [2]: 12.1 nM

C[C@@H]1N=C(c2ccccc2Cl)c2cc([N+](=O)[O-])ccc2N(C)C1=O [MYM-II-53]
IC50 (adult male S. mansoni [1]; [6]): > 50000 nM
Ki [2]: 4.1 nM

O=C(C1CCCCC1)N1CC(=O)N2CCc3ccccc3C2C1 (centres unmarked) [PZQ, praziquantel]
Cure rates (schistosomiasis): 70–90%

C#Cc1ccc2c(c1)C(c1ccccc1F)=N[C@@H](C)c1c(C(=O)OCC)ncn1-2 [SH-053-2’F-S-CH3]
Potency at evoking coiled, contractile paralysis / activity against parasites (in words) (adult male S. mansoni [1]): dramatically decreased affinity

CCOC(=O)c1ncn2c1[C@H](C)N=C(c1ccccc1F)c1cc(Br)ccc1-2 [SH-I-48B]
Activity (curl phenotype) (adult male S. mansoni [3]; up to 100 micromolar): Inactive up to 100 micromolar
Potency at evoking coiled, contractile paralysis / activity against parasites (in words) (adult male S. mansoni [1]): dramatically decreased affinity

CCOC(=O)c1ncn2c1[C@H](C)N=C(c1ccccc1F)c1cc(C#C[Si](C)(C)C)ccc1-2 [SH-I-055]
Worms showing curl phenotype (adult male S. mansoni [3]; 5 micromolar): 4/8
Worms showing curl phenotype (adult male S. mansoni [3]; 10 micromolar): 8/8
IC50 (adult male S. mansoni [1]; [6]): 1400 nM
Times less potent than XliHeII-048 (adult male S. mansoni [1]; movement IC50 comparison): ~ 3 times
Recovery of movement following drug washout (S. mansoni; 10 μM): recovering by 1 day after drug washout
Tegument ultrastructure (TEM) (S. mansoni tegument; 10 μM, overnight (14 hours)): normal tissue ultrastructure
Ki [2]: 1700 nM

CCOC(=O)c1ncn2c1[C@@H](C)N=C(c1ccccc1F)c1cc(C#C[Si](C)(C)C)ccc1-2 [SH-I-060]
Potency at evoking coiled, contractile paralysis / activity against parasites (in words) (adult male S. mansoni [1]): marked decrease in potency; also recorded: essentially inactive

CCOC(=O)c1ncn2c1CN=C(c1ccccc1)c1cc(C#C[Si](C)(C)C)ccc1-2 [Xhe-II-048]
IC50 (adult male S. mansoni [1]): 850 nM
Recovery of movement following drug washout (S. mansoni; 10 μM): did not recover movement up to one day
Tegument ultrastructure (TEM) (S. mansoni tegument; 10 μM, overnight (14 hours)): extensive vacuole distribution beneath the apical membrane
Ki [2]: 2500 nM

CCOC(=O)c1ncn2c1CN=C(c1ccccc1F)c1cc(C#C[Si](C)(C)C)ccc1-2 [XliHeII-048]
Worms showing curl phenotype (adult male S. mansoni [3]; 10 micromolar): 5/5
IC50 (adult male S. mansoni [1]): 540 nM
Recovery of movement following drug washout (S. mansoni; 10 μM): recovering by 1 day after drug washout
Tegument ultrastructure (TEM) (S. mansoni tegument; 10 μM, overnight (14 hours)): normal tissue ultrastructure
Ki [2]: 1600 nM

CCOC(=O)c1ncn2c1CN(C)C(=O)c1cc(F)ccc1-2 [flumazenil]
Elimination half-life ([4]; flumazenil, administered by IV): < 1 h
Bioavailability ([4]; flumazenil): poor bioavailability

O=C1CN=C(c2ccccc2)c2cc([N+](=O)[O-])ccc2N1 [nitrazepam, reference compound]
IC50 (adult male S. mansoni [1]; [6]): > 50000 nM
Potency at evoking coiled, contractile paralysis / activity against parasites (in words) (adult male S. mansoni [1]): inactive against parasites
